In US20180008587A1, “THIOHYDANTOIN ANDROGEN RECEPTOR ANTAGONISTS FOR THE TREATMENT OF CANCER” (Jaressen Pharmaceutica NV, priority 2016, published 2018):
Residue numbers refer to the chain shown, from its start. pEC50: −log10 of the molar value. Read-outs that look alike come from different tables or passages of the source.

Experiments:
Assay type in all cases: cell-based
[1] = molecular target: T1, wild-type Androgen Receptor (AR-wt) (Homo sapiens, UniProt P10275); assay: LNCaP-AR-wt ANT reporter assay (ARE firefly luciferase, antagonist mode); settings: for IC50: antagonist mode, 400 pM R-1881 challenge, −Log10(IC50 [Molar]), read-out: LNCaP-AR-wt ANT pIC50 (converted); for Emax: read-out: LNCaP-AR-wt ANT MAX % Inh
T1 construct: expressed in transfected cells; host or cells: LNCaP (LNCaP AR (cs))
T1 sequence (P10275 1-920): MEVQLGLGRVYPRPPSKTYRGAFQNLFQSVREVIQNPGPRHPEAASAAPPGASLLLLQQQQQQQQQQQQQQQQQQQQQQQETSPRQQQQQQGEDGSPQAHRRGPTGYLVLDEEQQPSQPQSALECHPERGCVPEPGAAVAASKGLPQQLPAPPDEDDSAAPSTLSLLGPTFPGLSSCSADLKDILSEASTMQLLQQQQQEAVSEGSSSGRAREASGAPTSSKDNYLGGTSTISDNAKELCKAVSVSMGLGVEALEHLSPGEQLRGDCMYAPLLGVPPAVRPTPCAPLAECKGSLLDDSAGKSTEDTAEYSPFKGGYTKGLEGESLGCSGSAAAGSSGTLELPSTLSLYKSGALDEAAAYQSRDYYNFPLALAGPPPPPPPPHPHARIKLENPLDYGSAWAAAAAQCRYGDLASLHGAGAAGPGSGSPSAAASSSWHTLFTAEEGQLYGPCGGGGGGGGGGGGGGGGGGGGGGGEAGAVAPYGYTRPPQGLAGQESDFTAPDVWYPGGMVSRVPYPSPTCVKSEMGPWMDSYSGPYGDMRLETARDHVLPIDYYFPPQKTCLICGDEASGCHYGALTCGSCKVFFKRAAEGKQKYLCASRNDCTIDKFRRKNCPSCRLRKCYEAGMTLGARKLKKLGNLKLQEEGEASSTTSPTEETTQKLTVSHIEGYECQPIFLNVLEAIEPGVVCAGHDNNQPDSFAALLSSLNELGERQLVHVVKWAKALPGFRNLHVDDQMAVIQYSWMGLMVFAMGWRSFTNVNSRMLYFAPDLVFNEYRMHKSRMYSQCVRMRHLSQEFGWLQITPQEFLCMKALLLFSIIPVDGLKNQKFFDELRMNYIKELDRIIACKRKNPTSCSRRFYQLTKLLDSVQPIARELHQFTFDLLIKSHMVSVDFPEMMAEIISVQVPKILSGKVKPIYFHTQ
Method: (§1) A stable pooled-population cell line was generated using puromycin (Life Technologies) selection at 1:10,000 v/v. The protocol below was used for both cell lines and for testing of the compounds of Formula (I) of the present invention.
(§2) LNCaP cells were grown to about 80% confluence, media removed and cells rinsed in Hank's balanced salt solution prior to separation from the plate with 0.05% Trypsin EDTA. Cells were lifted and trypsin negated in complete CSS (charcoal stripped serum) culture media. […] Agonist challenge was at 400 pM for WT assay and 600 pM for F876L assay. Plates containing cells and compounds herein were incubated for a further 20-24 hours at 37° C., 5% CO2 before addition of 40 μL/well of Steady-Glo Luciferase Assay System Reagent (Promega# E2520). After 1 h, plates were read for luminescence on a BMG Pherastar.
(§3) EC/IC50 calculations were achieved utilizing calculated RLU data and data fitting macros. Data were fit using least-squares methods to the following formula: […]

[2] = molecular target: T1, wild-type Androgen Receptor (AR-wt); assay: LNCaP-AR-wt AG reporter assay (ARE firefly luciferase, agonist mode); settings: for EC50: agonist mode, −Log10(EC50 [Molar]), read-out: LNCaP-AR-wt AG pEC50 (converted); for Emax: read-out: LNCaP-AR-wt AG MAX % Stim
Method: as §1, §2, §3

[3] = molecular target: T2, F876L mutant Androgen Receptor (AR-F876L) (Homo sapiens, UniProt P10275, F877L); assay: LNCaP-AR-F876L AG reporter assay (ARE firefly luciferase, agonist mode); settings: for EC50: agonist mode, −Log10(EC50 [Molar]), read-out: LNCaP-AR-F876L AG pEC50 (converted); for Emax: read-out: LNCaP-AR-F876L AG MAX % Stim
T2 construct: expressed in transfected cells; host or cells: LNCaP (LNCaP F876L)
T2 sequence (P10275 1-920 F877L): T1 sequence (P10275 1-920) with F877L
Method: as §1, §2, §3

[4] = molecular target: T2, F876L mutant Androgen Receptor (AR-F876L); assay: LNCaP-AR-F876L ANT reporter assay (ARE firefly luciferase, antagonist mode); settings: for Emax: read-out: LNCaP-AR-F876L ANT MAX % Inh; for IC50: read-out: LNCaP-AR-F876L ANT pIC50 (converted)
Method: as §1, §2, §3

[5] = maximum % inhibition of R1881 control response over tested concentration range
[6] = maximum % stimulation (agonist response) over tested concentration range

Row | SMILES | IC50 [1] [µM] | Emax [1, 5] [%] | EC50 [2] [µM] | Emax [2, 6] [%] | EC50 [3] [µM] | Emax [3, 6] [%] | Emax [4, 5] [%] | IC50 [4] [µM] | Emax [1] [%] | pEC50 [2] | Emax [2] [%] | pEC50 [3] | Emax [3] [%] | Emax [4] [%]
1 | Cc1cc(N2C(=O)C(C)(C)N(c3ccc(OC4CCN(C)CC4)cc3)C2=S)cnc1C#N [Cpd 1, 5-[4,4-dimethyl-3-[4-[(1-methyl-4-piperidyl)oxy]phenyl]-5-oxo-2-thioxo-imidazolidin-1-yl]-3-methyl-pyridine-2-carbonitrile] | 0.871 | 100 | > 15.1 | 0.5 | > 15.1 | -0.6 | 101 | 0.513 |  |  |  |  |  | 
2 | Cc1cc(N2C(=O)C3(CCC3)N(c3ccc(C(=O)NC4CCOCC4)c(F)c3)C2=S)cnc1C#N [Cpd 2, 4-[6-(6-cyano-5-methyl-3-pyridyl)-5-oxo-7-thioxo-6,8-diazaspiro[3.4]octan-8-yl]-2-fluoro-N-tetrahydropyran-4-yl-benzamide] | 2.24 |  |  |  |  |  |  | 0.288 | 98.1 | < 4.82 | 0.8 | < 4.82 | -0.4 | 99.3
3 | Cc1cc(N2C(=O)C3(CCC3)N(c3ccc(C(=O)NCC4CCOCC4)c(F)c3)C2=S)cnc1C#N [Cpd 3, 4-[6-(6-cyano-5-methyl-3-pyridyl)-5-oxo-7-thioxo-6,8-diazaspiro[3.4]octan-8-yl]-2-fluoro-N-(tetrahydropyran-4-ylmethyl)benzamide] | 1.35 | 99.6 | > 15.1 | 0.3 | > 15.1 | -0.3 | 98.9 | 0.324 |  |  |  |  |  | 
4 | Cc1cc(N2C(=O)C3(CCC3)N(c3ccc(OC4CCN(C)CC4)cc3)C2=S)cnc1C#N [Cpd 4, 3-methyl-5-[8-[4-[(1-methyl-4-piperidyl)oxy]phenyl]-5-oxo-7-thioxo-6,8-diazaspiro[3.4]octan-6-yl]pyridine-2-carbonitrile] | 1.1 | 100 | > 15.1 | 0.2 | > 15.1 | -0.4 | 100 | 0.269 |  |  |  |  |  | 
5 | N#Cc1ncc(N2C(=O)C3(CCC3)N(c3ccc4ccncc4c3)C2=S)cc1C(F)(F)F [Cpd 7, 5-[8-(7-isoquinolyl)-5-oxo-7-thioxo-6,8-diazaspiro[3.4]octan-6-yl]-3-(trifluoromethyl)pyridine-2-carbonitrile] | 0.417 |  |  |  |  |  |  | 0.234 | 101 | < 4.82 | -0.2 | < 4.82 | 0 | 100
6 | N#Cc1ncc(N2C(=O)C3(CCC3)N(c3cccnc3)C2=S)cc1C(F)(F)F [Cpd 9, 5-[5-oxo-8-(3-pyridyl)-7-thioxo-6,8-diazaspiro[3.4]octan-6-yl]-3-(trifluoromethyl)pyridine-2-carbonitrile] | 0.871 |  |  |  |  |  |  | 0.692 | 99 | < 4.82 | -0.2 | < 4.82 | 0 | 100
7 | Cc1cc(N2C(=O)C3(CCC3)N(c3ccc(OC4CCOCC4)cc3)C2=S)cnc1C#N [Cpd 87, 3-methyl-5-[5-oxo-8-(4-tetrahydropyran-4-yloxyphenyl)-7-thioxo-6,8-diazaspiro[3.4]octan-6-yl]pyridine-2-carbonitrile] |  |  |  |  |  |  |  | 0.288 |  | < 4.82 | 1.1 | < 4.82 | 0.9 | 99.7

Continued, in another order:

Row | IC50 [1] [µM] | Emax [1, 5] [%] | EC50 [2] [µM] | Emax [2, 6] [%] | EC50 [3] [µM] | Emax [3, 6] [%] | Emax [4, 5] [%] | IC50 [4] [µM] | SMILES | Emax [1] [%] | pEC50 [2] | Emax [2] [%] | pEC50 [3] | Emax [3] [%] | Emax [4] [%]
8 | 0.977 | 101 | > 15.1 | 0.7 | > 15.1 | -0.1 | 98.3 | 0.417 | CNC(=O)c1ccc(N2C(=S)N(c3cnc(C#N)c(C)c3)C(=O)C23CCC3)cc1C [Cpd 5, 4-[6-(6-cyano-5-methyl-3-pyridyl)-5-oxo-7-thioxo-6,8-diazaspiro[3.4]octan-8-yl]-N,2-dimethyl-benzamide] |  |  |  |  |  | 
9 | 0.646 | 100 | > 15.1 | 0.4 | > 15.1 | 0 | 99.5 | 0.178 | Cc1cc(N2C(=O)C3(CCC3)N(c3ccc(OC4CCS(=O)(=O)CC4)cc3)C2=S)cnc1C#N [Cpd 6, 5-[8-[4-(1,1-dioxothian-4-yl)oxyphenyl]-5-oxo-7-thioxo-6,8-diazaspiro[3.4]octan-6-yl]-3-methyl-pyridine-2-carbonitrile] |  |  |  |  |  | 
10 | 0.724 | 99 | > 15.1 | 0.6 | > 15.1 | 0.1 | 98.4 | 0.49 | Cc1cc(N2C(=O)C3(CCC3)N(c3ccc(OCCN4CCN(C)CC4)cc3)C2=S)cnc1C#N [Cpd 10, 3-methyl-5-[8-[4-[2-(4-methylpiperazin-1-yl)ethoxy]phenyl]-5-oxo-7-thioxo-6,8-diazaspiro[3.4]octan-6-yl]pyridine-2-carbonitrile] |  |  |  |  |  | 
11 | 0.245 | 100 | > 15.1 | 0.3 | > 15.1 | 0 |  |  | N#Cc1ncc(N2C(=O)C3(CCC3)N(c3ccc(C(=O)NCCc4ccccc4)c(F)c3)C2=S)cc1C(F)(F)F [Cpd 42, 4-[6-[6-cyano-5-(trifluoromethyl)-3-pyridyl]-5-oxo-7-thioxo-6,8-diazaspiro[3.4]octan-8-yl]-2-fluoro-N-phenethyl-benzamide] |  |  |  |  |  | 
